In PubChem BioAssay AID816 (SRMLSC, 2007):
The source made the active and inactive calls. How the calls were made is not given here.

What follows are molecules tested on S. cerevisiae GAL1 promoter reporter activation counterscreen (assay: GAL1 promoter activators in yeast, artefact control for yeast lifespan extension project, S. cerevisiae (AID 816);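 further: yeast growth read after 24 h of incubation with compounds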).
`CCCCCSc1nc2c(c(=O)[nH]c(=O)n2C)n1C` was tested, and the EC50 was > 40 µM (inactive). For `CSC1=NSC2=NC(=O)/C(=C\c3cccs3)C(=N)N12`, the EC50 was > 40 µM (inactive). For `Cc1ccc2nc(N3C(=O)C(O)=C(C(=O)c4ccco4)C3c3cccs3)sc2c1` (stereo unspecified), the EC50 was > 40 µM (inactive). With `COc1ccc(/C=C/C(=O)C2C(=O)C=C(C)OC2=O)cc1O` (stereo unspecified) the EC50 was > 40 µM (inactive). In the case of `O=C(/C=C/c1ccccc1)C1C(=O)c2ccccc2C1=O`, the EC50 is reported as > 40 µM (inactive). `CCN1C(=O)C(=Cc2ccc(C)s2)C(=O)N(CC)C1=S` was tested, and the EC50 was > 40 µM (inactive). `CC1CC(C)CN(S(=O)(=O)c2cccc(C(=O)N3C(=O)c4cccc(N)c4C3=O)c2)C1` (stereo unspecified) was tested, and the EC50 was > 40 µM (inactive). `C=CCn1c(O)c(C(CC)=NCCN2CCOCC2)c(=O)[nH]c1=O` was tested, and the EC50 was > 40 µM (inactive). For `CCCC(=O)C1C(=O)CC(CC(C)SCC)CC1=O` (stereo unspecified), the EC50 was > 40 µM (inactive). With `CC(=O)c1c(C)[nH]c(C(=O)OC2CCCCC2=O)c1C` (stereo unspecified) the EC50 was > 40 µM (inactive). With `C/C(=N\NC(=O)c1ccccc1O)C1C(=O)c2ccccc2C1=O` the EC50 was > 40 µM (inactive). For `O=C1c2ccccc2NC(c2cnc3ccccc3n2)N1O` (stereo unspecified), the EC50 was > 40 µM (inactive). `O=C1CC(c2ccc(F)cc2)CC(O)=C1C=NCCN1CCN(C(=O)Nc2ccccc2)CC1` (stereo unspecified) was tested, and the EC50 was > 40 µM (inactive). For `Nn1c(-c2ccccn2)nnc1-c1ccccn1`, the EC50 was > 40 µM (inactive). `COC(=O)/C(=C/c1cn(C)c2ccccc12)[N+](=O)[O-]` was tested, and the EC50 was > 40 µM (inactive). With `Cc1ccccc1Oc1cc(-n2ncc(Cl)c(Cl)c2=O)ncn1` the EC50 was > 40 µM (inactive). In the case of `O=C1c2ccccc2C(=O)N1Cc1nc2ccccc2c(=O)n1-c1ccc(Br)cn1`, the EC50 is reported as > 40 µM (inactive). With `N=c1c2c(-c3ccccc3)c(-c3ccccc3)n(Cc3ccco3)c2ncn1CCCn1ccnc1` the EC50 was > 40 µM (inactive). `COc1cc(C(C[N+](=O)[O-])c2c(-c3ccccc3)cc3ccccn23)cc(OC)c1OC` (stereo unspecified) was tested, and the EC50 was > 40 µM (inactive). `O=C(NCC1CCCO1)c1c(O)c2ccccc2[nH]c1=O` (stereo unspecified) was tested, and the EC50 was > 40 µM (inactive). In the case of `Cc1ccc(C(=O)C2C(=O)c3ccccc3C2=O)cc1`, the EC50 is reported as > 40 µM (inactive). In the case of `Cc1ccccc1NC(=O)c1ccccc1`, the EC50 is reported as > 40 µM (inactive). `C=CCn1c(-c2ccc(OC)cc2)csc1=Nc1c(C)n(C)n(-c2ccccc2)c1=O` was tested, and the EC50 was > 40 µM (inactive). With `O=C(O)Cc1ccc(N=Cc2c(O)ccc3ccccc23)cc1` the EC50 was > 40 µM (inactive). With `O=C1/C(=N/n2cnnc2)c2ccccc2N1Cc1ccccc1` the EC50 was > 40 µM (inactive). For `O=C1c2ccccc2C(=O)N1c1ncc(Cc2ccc(Cl)cc2)s1`, the EC50 was > 40 µM (inactive). `CC1(C)CC(=O)C(C(=O)Cc2ccccc2[N+](=O)[O-])C(=O)C1` was tested, and the EC50 was > 40 µM (inactive). In the case of `Oc1ccc2ccccc2c1C=Nc1ccccc1-c1nc2ccccc2[nH]1`, the EC50 is reported as > 40 µM (inactive). With `CC1=NN(Cc2ccccc2)C(=O)C1C(c1ccccc1)C(C#N)C#N` (stereo unspecified) the EC50 was > 40 µM (inactive). In the case of `O=C(Nc1cccc(Cl)c1)c1ccc2c(=O)n3c(nc2c1)CCCCC3`, the EC50 is reported as > 40 µM (inactive). For `COc1cccc(C2CC3C(=O)C=CC2N3Cc2ccccc2)c1` (stereo unspecified), the EC50 was > 40 µM (inactive). For `CN(C)c1ccc(S(=O)(=O)c2ccc(Cl)cc2)cc1`, the EC50 was > 40 µM (inactive). For `CC[n+]1ccc(C[n+]2ccccc2)c2ccccc21`, the EC50 was > 40 µM (inactive). For `CC(C)CN=C(NS(=O)(=O)c1ccccc1)C(Cl)(Cl)Cl`, the EC50 was > 40 µM (inactive). `COc1cccc(/C=C2\C(=O)N(c3cccc(C)c3)C(=O)c3ccccc32)c1` was tested, and the EC50 was > 40 µM (inactive). For `O=C1c2ccccc2NC(c2ccc(Cl)cc2Cl)N1O` (stereo unspecified), the EC50 was > 40 µM (inactive). In the case of `CCOC(=O)CCS(=O)(=O)c1nc(-c2ccccc2)cc(C(F)(F)F)n1`, the EC50 is reported as > 40 µM (inactive). With `O=C(CSc1nc2ccccc2o1)c1cc2ccccc2oc1=O` the EC50 was > 40 µM (inactive). `O=C1/C(=C\c2cccnc2)CN(Cc2ccccc2)C/C1=C\c1cccnc1` was tested, and the EC50 was > 40 µM (inactive). In the case of `CC(=O)Oc1c(C(=O)c2nnc(C)o2)c(=O)n(C)c2ccccc12`, the EC50 is reported as > 40 µM (inactive). With `O=C(Oc1cc(=O)n2ccccc2n1)c1ccccc1` the EC50 was > 40 µM (inactive). For `Cc1cc2c(c(=O)n1CCc1ccccc1)C(c1ccco1)C(C#N)=C(N)O2` (stereo unspecified), the EC50 was > 40 µM (inactive). `c1ccc(-c2cc(N3CCOCC3)nc3ccccc23)cc1` was tested, and the EC50 was > 40 µM (inactive). `C=C(CC)C(=O)c1ccc(OCC(=O)O)c(Cl)c1Cl` was tested, and the EC50 was > 40 µM (inactive). With `COc1cc(OC)cc(-c2nc3ccccc3c(=O)n2OC(=O)c2ccccc2C)c1` the EC50 was > 40 µM (inactive). For `O=C(/C(=C/O)N=Nc1ccc(Cl)cc1)c1ccncc1`, the EC50 was > 40 µM (inactive). In the case of `CCC1C/C(=C\c2cccnc2)C(=O)/C(=C/c2cccnc2)C1` (stereo unspecified), the EC50 is reported as > 40 µM (inactive). In the case of `Cc1ncc(C23CC4CC(CC(C4)C2)C3)[nH]1`, the EC50 is reported as > 40 µM (inactive). `O=C1C(C2=C(O)c3ccccc3C2=O)=Nc2ccccc21` was tested, and the EC50 was > 40 µM (inactive). `N#Cc1cc(C(=O)c2cc(F)ccc2O)cn(-c2nccs2)c1=O` was tested, and the EC50 was > 40 µM (inactive). In the case of `COC(=O)C1=C(N)OC2=C(C(=O)CC(C)(C)C2)C1c1cccs1` (stereo unspecified), the EC50 is reported as > 40 µM (inactive). `CN=C(SCc1cc2c(cc1Cl)OCO2)c1c(O)n(C)c(=O)n(C)c1=O` was tested, and the EC50 was > 40 µM (inactive). In the case of `CC(C)n1c(=O)c2c(O)cc(=O)oc2c2ccccc21`, the EC50 is reported as > 40 µM (inactive). For `CCCCSc1nc(O)c(C2OC(=O)c3c2ccc(OC)c3OC)c(=O)n1C` (stereo unspecified), the EC50 was > 40 µM (inactive). `CCn1c(/N=C/c2ccccc2NS(=O)(=O)c2ccc(C)cc2)nc2ccccc21` was tested, and the EC50 was > 40 µM (inactive). With `CC(C)(C)C(=O)Cn1c(=N)n(Cc2ccccc2)c2ccccc21` the EC50 was > 40 µM (inactive). `Oc1ccc2ccccc2c1C=Nc1ccc(N2CCOCC2)cc1` was tested, and the EC50 was > 40 µM (inactive). In the case of `O=C(Oc1ccc2c(c1)OCO2)C12CC3CC(CC(C3)C1)C2`, the EC50 is reported as > 40 µM (inactive). For `CCCCSc1[nH]c(=O)c(C(=O)OCC)cc1C#N`, the EC50 was > 40 µM (inactive). For `CC(=O)[C@H]1[C@H](c2cccc(Cl)c2)C(C#N)(C#N)[C@@H]2c3ccccc3C=CN21`, the EC50 was > 40 µM (inactive). With `CC1CCc2cc(F)cc3c(O)c(C(=O)NCc4ccco4)c(=O)n1c23` (stereo unspecified) the EC50 was > 40 µM (inactive). For `CCOC(=O)c1c(C)oc2c1c(C(c1cccnc1)N1CCOCC1)c(O)c1ccccc12` (stereo unspecified), the EC50 was > 40 µM (inactive). `CCOC(=O)/C(=C\c1cn(C)c2ccccc12)[N+](=O)[O-]` was tested, and the EC50 was > 40 µM (inactive). `COc1ccc(CN2C(=O)/C(=C/c3ccncc3)SC2=S)cc1` was tested, and the EC50 was > 40 µM (inactive). For `CC(C)C(c1nnnn1Cc1ccccc1)N1CCN(Cc2ccc3c(c2)OCO3)CC1` (stereo unspecified), the EC50 was > 40 µM (inactive). `c1cncc(-c2nn[nH]n2)c1` was tested, and the EC50 was > 40 µM (inactive). For `O=[N+]([O-])c1cc(S(=O)(=O)N2CCCCCC2)ccc1F`, the EC50 was > 40 µM (inactive). `COCCn1c(SCC(=O)Nc2ccc(C)cc2)nc2c(oc3ccccc32)c1=O` was tested, and the EC50 was > 40 µM (inactive). In the case of `O=C(Nc1ccc(Br)cn1)c1cccc(-c2cc3ccccc3oc2=O)c1`, the EC50 is reported as > 40 µM (inactive). In the case of `Cc1ccnc(-n2c(C)cc(/C=C3\C(=O)NC(=S)N(C)C3=O)c2C)c1`, the EC50 is reported as > 40 µM (inactive). `Cc1ccc(C(C2=C(O)CC(C)(C)CC2=O)C2C(=O)CC(C)(C)CC2=O)o1` (stereo unspecified) was tested, and the EC50 was > 40 µM (inactive). `CCc1ccc2c(c1)CCCN2C(=O)c1ccccc1C(=O)O` was tested, and the EC50 was > 40 µM (inactive). For `O=C(O)c1cccc2c1C(=O)N(C1CCCCC1)C2`, the EC50 was > 40 µM (inactive). With `CN1C/C(=C/c2cccnc2)C(=O)/C(=C/c2cccnc2)C1` the EC50 was > 40 µM (inactive). With `COc1ccccc1CNC(=O)C(CCSC)NS(=O)(=O)c1ccc2c(c1)oc(=O)n2C` (stereo unspecified) the EC50 was > 40 µM (inactive). `CCSc1ccccc1C(=O)n1nnc2ccccc21` was tested, and the EC50 was > 40 µM (inactive). For `COCCCNC(CC(=O)Nc1ccc(OC)cc1OC)C(=O)O` (stereo unspecified), the EC50 was > 40 µM (inactive). In the case of `O=C1Nc2cc(Cl)c(Cl)cc2N(O)N1c1cc(Cl)cc(Cl)c1`, the EC50 is reported as > 40 µM (inactive). In the case of `CCOC(=O)C1C(=O)C(C(C)=O)C(=O)CC1CC(C)SCC` (stereo unspecified), the EC50 is reported as > 40 µM (inactive). `CCCC(=O)Nc1ccc(C(=O)NNC(=S)NC(=O)c2cccs2)cc1` was tested, and the EC50 was > 40 µM (inactive). `Cc1ccc(C(=O)OC2=CC(=O)CC(C)(C)C2)cc1` was tested, and the EC50 was > 40 µM (inactive). With `Oc1ccc2ccccc2c1/C=N/c1nccs1` the EC50 was > 40 µM (inactive). In the case of `CCc1nnc(NC(=O)c2cccc(S(=O)(=O)N(C)c3ccccc3)c2)s1`, the EC50 is reported as > 40 µM (inactive). `CCOC(=O)Cc1csc(NC(=O)c2c(O)c3ccccc3n(CC(C)C)c2=O)n1` was tested, and the EC50 was > 40 µM (inactive). In the case of `CC(c1ccccc1)N1CCn2c(nc3cc(NC(=O)c4cccs4)ccc32)C1` (stereo unspecified), the EC50 is reported as > 40 µM (inactive). With `CCOc1ccc(NCc2nc3ccccc3n2CCOc2ccccc2)cc1` the EC50 was > 40 µM (inactive). In the case of `Cc1ccc2nc(-c3ccc(NC(=O)CSc4ccccc4)cc3)[nH]c2c1`, the EC50 is reported as > 40 µM (inactive). With `Cc1nn(-c2c(Cl)cc(Cl)cc2Cl)c(=O)c2ccccc12` the EC50 was > 40 µM (inactive). For `CN1CCN(CC(=O)Nc2ccc(Cl)cc2Cl)CC1`, the EC50 was > 40 µM (inactive). For `C[C@]12CC[C@@H](O)C[C@@H]1CC[C@@H]1[C@@H]2CC[C@]2(C)[C@@H](O)CC[C@@H]12`, the EC50 was > 40 µM (inactive). `O=S(=O)(Nc1cccc2c1CCCC2)c1ccc(Cl)cc1` was tested, and the EC50 was > 40 µM (inactive). `Cc1ccc2[nH]c3c(c2c1)CC/C(=C/c1ccccc1)C3=O` was tested, and the EC50 was > 40 µM (inactive). For `CC1=CS(=O)(=O)CC1Sc1nc2ccccc2[nH]1` (stereo unspecified), the EC50 was > 40 µM (inactive). `CC1Cc2ccccc2N1C(=O)Cn1cnc2ccccc2c1=O` (stereo unspecified) was tested, and the EC50 was > 40 µM (inactive). For `Cc1cccc(OC(=O)n2c(=S)oc3cc(Cl)ccc32)c1`, the EC50 was > 40 µM (inactive). In the case of `CCCCn1c(=O)c(C(=O)Nc2cnccn2)c(O)c2ccccc21`, the EC50 is reported as > 40 µM (inactive). For `C=C(C(=O)c1ccccc1)C(C)C(=C)C(=O)c1ccccc1`, the EC50 was > 40 µM (inactive). In the case of `CC(=NCCc1c(C)[nH]c2ccc(C)cc12)C1=C(O)CC(c2ccccc2)CC1=O` (stereo unspecified), the EC50 is reported as > 40 µM (inactive). With `O=C(N/N=C/c1ccc(F)cc1)c1c(O)c2ccccc2[nH]c1=O` the EC50 was > 40 µM (inactive). For `CCCCNC(=O)/C(C#N)=C/c1cccnc1`, the EC50 was > 40 µM (inactive). For `O=c1c2ccccc2nc(-c2ccc(Cl)c(Cl)c2)n1O`, the EC50 was > 40 µM (inactive).
